The values below come from patent US20080255085A1, “Novel Imidazo [4,5-b] Pyridine Derivatives as Inhibitors of Glycogen Synthase Kinase 3 for Use in the Treatment of Dementia and Neurodegenerative Disorders” (ASTRAZENECA AB, priority 2005, published 2008).

Where a name gives a salt, the structure may show the parent alone.

In this experiment the target is T1, GSK3β (Homo sapiens, UniProt P49841).
T1 construct: purchased Dundee University, UK
T1 sequence (P49841 whole entry): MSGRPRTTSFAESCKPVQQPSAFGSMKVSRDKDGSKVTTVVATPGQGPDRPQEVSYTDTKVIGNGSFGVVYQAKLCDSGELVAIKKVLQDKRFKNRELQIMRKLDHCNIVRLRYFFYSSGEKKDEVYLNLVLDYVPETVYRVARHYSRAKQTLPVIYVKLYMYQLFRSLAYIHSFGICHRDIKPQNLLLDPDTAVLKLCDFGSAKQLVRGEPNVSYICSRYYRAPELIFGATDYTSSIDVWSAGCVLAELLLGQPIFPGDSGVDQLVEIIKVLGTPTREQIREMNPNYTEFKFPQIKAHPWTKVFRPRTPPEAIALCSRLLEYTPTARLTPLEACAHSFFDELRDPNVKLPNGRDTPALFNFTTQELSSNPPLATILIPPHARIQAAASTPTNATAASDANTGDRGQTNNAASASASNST
As to the kind of experiment: GSK3β Scintillation Proximity Assay (ATP competition). Type of experiment: biochemical. As to conditions: recombinant human GSK3; 1 μM ATP; Km of ATP 20 μM used to calculate Ki; 20 minutes at room temperature. The procedure: Determination of ATP Competition in Scintillation Proximity GSK3β Assay.
GSK3β Scintillation Proximity Assay.
The competition experiments were carried out in duplicate with 10 different concentrations of the inhibitors in clear-bottom microtiter plates (Wallac, Finland). A biotinylated peptide substrate, Biotin-Ala-Ala-Glu-Glu-Leu-Asp-Ser-Arg-Ala-Gly-Ser(PO3H2)-Pro-Gln-Leu (AstraZeneca, Lund), was added at a final concentration of 1 μM in an assay buffer containing 1 mU recombinant human GSK3 (Dundee University, UK), 12 mM morpholinepropanesulfonic acid (MOPS), pH 7.0, 0.3 mM EDTA, 0.01% β-mercaptorethanol, 0.004% Brij 35 (a […] detergent), 0.5% glycerol and 0.5 μg BSA/25 μl. The reaction was initiated by the addition of 0.04 μCi [γ-^33P]ATP (Amersham, UK) and unlabelled ATP at a final concentration of 1 μM and assay volume of 25 μl. After incubation for 20 minutes at room temperature, each reaction was terminated by the addition of 25 μl stop solution containing 5 mM EDTA, […] ATP, 0.1% Triton X-100 and 0.25 mg streptavidin coated Scintillation Proximity Assay (SPA) beads (Amersham, UK). After 6 hours the radioactivity was determined in a liquid scintillation counter (1450 MicroBeta Trilux, Wallac). The inhibition curves were analysed by non-linear regression using GraphPad Prism, USA. The Km value of ATP for GSK3β, used to calculate the inhibition constants (Ki) of the various compounds, was 20 μM.
As usually defined, the Ki is the equilibrium dissociation constant of an inhibitor or competing ligand from its target. Consider `COc1ccc(-c2ccnc3[nH]c(-c4ccc(C(=O)NCCN5CCOCC5)cc4)nc23)cc1` [Example 7, 4-[7-(4-Methoxyphenyl)-3H-imidazo[4,5-b]pyridin-2-yl]-N-(2-morpholin-4-ylethyl)benzamide hydrochloride], for which the Ki is 44 nM.

With `COc1cccc(-c2ccnc3[nH]c(-c4ccc(S(=O)(=O)N5CCN(C)CC5)cc4)nc23)c1` [Example 2, 7-(3-Methoxyphenyl)-2-{4-[(4-methylpiperazin-1-yl)sulfonyl]phenyl}-3H-imidazo[4,5-b]pyridine hydrochloride], the Ki was 124 nM.

On to `COc1ccc(-c2ccnc3[nH]c(-c4ccc(CN5CCCCC5)cc4)nc23)cc1` [Example 6, 7-(4-Methoxyphenyl)-2-[4-(piperidin-1-ylmethyl)phenyl]-3H-imidazo[4,5-b]pyridine hydrochloride], for which the Ki was 31 nM.

`CN1CCN(C(=O)c2ccc(-c3nc4c(-c5cccnc5)ccnc4[nH]3)cc2)CC1` [Example 9, 2-{4-[(4-Methylpiperazin-1-yl)carbonyl]phenyl}-7-pyridin-3-yl-3H-imidazo[4,5-b]pyridine hydrochloride]: the inhibitory constant (Ki) was 254 nM.
